The text below walks through data of US20090264421A1 (priority 2007, published 2009).

The data set addresses T1, TrxR1 (Rattus norvegicus, UniProt O89049).
T1 sequence (O89049 1-499): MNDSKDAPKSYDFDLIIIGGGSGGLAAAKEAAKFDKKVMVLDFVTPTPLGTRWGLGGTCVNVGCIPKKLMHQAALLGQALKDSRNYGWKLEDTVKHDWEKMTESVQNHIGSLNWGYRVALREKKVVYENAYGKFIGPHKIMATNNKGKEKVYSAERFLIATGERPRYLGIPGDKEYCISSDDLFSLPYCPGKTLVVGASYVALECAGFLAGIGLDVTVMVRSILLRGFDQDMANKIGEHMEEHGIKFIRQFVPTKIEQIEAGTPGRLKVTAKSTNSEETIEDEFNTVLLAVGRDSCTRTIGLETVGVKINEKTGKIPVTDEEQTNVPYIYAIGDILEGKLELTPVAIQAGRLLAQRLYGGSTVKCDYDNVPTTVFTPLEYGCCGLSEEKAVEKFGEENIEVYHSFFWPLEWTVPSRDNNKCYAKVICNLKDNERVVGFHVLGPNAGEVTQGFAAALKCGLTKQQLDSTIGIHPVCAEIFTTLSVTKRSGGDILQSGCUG
Type of data set: biochemical. On the set-up: rat liver thioredoxin reductase; purchased Sigma (St. Louis, Mo.). The following applies: mass spectroscopy; data not shown. How it is done: Samples were allowed to react at 22° C. for 15 min and then processed for analysis by desalting and fractionating using C18 ZipTips (Millipore Corporation, Bedford, Mass.). For the DTT/chaetocin reaction, the reaction proceeded for 20 min and was then spun down to remove precipitated insulin before loading onto ZipTips. ZipTips were conditioned with 60% acetonitrile:39% water:1% acetic acid and equilibrated with 1% acetic acid. Samples were acidified with glacial acetic acid and loaded onto an equilibrated ZipTip and washed with 1% acetic acid. Fractions were step-eluted off the ZipTip using 10 μl of 1% acetic acid in water containing 20, 30, 40, or 60% acetonitrile. Collected fractions were injected by loop injection (2 μl) directly into the mass spectrometer using a mobile phase of 30% acetonitrile:69% water:1% acetic acid at 5 μl/min. Mass spectra were collected on an Agilent Technologies LC/MSD-TOF mass spectrometer in positive electrospray ionization mode over a m/z range of 400 to 1500. The capillary, fragmentor, skimmer, and OCT RF voltages (3500, 185, 60, 200 volts, respectively) were optimized to enhance signal and minimize instrument fragmentation.

In the case of `CN1C(=O)[C@@]23C[C@]4([C@]56C[C@@]78SS[C@@](CO)(C(=O)N7[C@H]5Nc5ccccc56)N(C)C8=O)c5ccccc5N[C@@H]4N2C(=O)[C@]1(CO)SS3` [chaetocin], the “covalent adduct with TrxR1” value was “no evidence of a covalent chaetocin-TrxR1 adduction”.
